Target: V1a (Homo sapiens, UniProt P37288)
Test: Human vasopression V1a receptor binding assay
Set-up: host or cells: CHO cells (hV1a cell line), whole adherent cells
Conditions: hV1a cell line (CHO); for IC50: 1 nM 3H-AVP, Table 17, read-out: V1a Binding Affinity (IC50 (nM)); for Ki: Table 18
Description: Human vasopression V1a receptor binding assay. A cell line expressing the human V1a receptor in CHO cells (henceforth referred to as the hV1a cell line) was obtained from Dr. Michael Brownstein, NIMH, Bethesda, Md., USA. The hV1a cDNA sequence is described by Thibonnier et al., Journal of Biological Chemistry, 269, 3304-3310 (1994), and the expression method was the same as described by Morel et al. (1992). The hV1a cell line was grown in alpha-MEM with 10% fetal bovine serum and 250 ug/ml G418 (Gibco, Grand Island, N.Y., USA). For competitive binding assay, hV1a cells were plated into 6-well culture plate at 1:10 dilution from a confluency flask, and maintained in culture for at least two days. Culture medium was then removed, cells were washed with 2 ml binding buffer (25 mM Hepes, 0.25% BSA, 1×DMEM, PH=7.0). To each well, 990 μl binding buffer containing 1 nM 3H-AVP was added, and followed by 10 μl series diluted Example compounds dissolved in DMSO. […] 100 nM cold AVP (Sigma) was used to assess non-specific binding. Cells were incubated for 45 minutes at 37° C., assay mixture was removed and each well was washed three times with PBS (pH=7.4). 1 ml 2% SDS was added per well and plates were let sit for 30 minutes. The whole content in a well was transferred to a scintillation vial. Each well was rinsed with 0.5 ml PBS which was then added to the corresponding vial. Scintillation fluid (Ecoscint, National Diagnostics, Atlanta, Ga.) was then added at 3 ml per vial. Samples were counted in a liquid scintillation counter (Beckman LS3801). IC50 values were calculated by Prism Curve fitting software.
All of the alkanedioic esters and amides exemplified in the foregoing examples dissolved in DMSO were tested in this assay. Binding curves were generated according to methods described by Thibonnier et al. (1994). [^3H]-AVP was added to the hV1a cell cultures followed by 10 fold dilutions of each test compound.

Chain of V1a (P37288 whole entry): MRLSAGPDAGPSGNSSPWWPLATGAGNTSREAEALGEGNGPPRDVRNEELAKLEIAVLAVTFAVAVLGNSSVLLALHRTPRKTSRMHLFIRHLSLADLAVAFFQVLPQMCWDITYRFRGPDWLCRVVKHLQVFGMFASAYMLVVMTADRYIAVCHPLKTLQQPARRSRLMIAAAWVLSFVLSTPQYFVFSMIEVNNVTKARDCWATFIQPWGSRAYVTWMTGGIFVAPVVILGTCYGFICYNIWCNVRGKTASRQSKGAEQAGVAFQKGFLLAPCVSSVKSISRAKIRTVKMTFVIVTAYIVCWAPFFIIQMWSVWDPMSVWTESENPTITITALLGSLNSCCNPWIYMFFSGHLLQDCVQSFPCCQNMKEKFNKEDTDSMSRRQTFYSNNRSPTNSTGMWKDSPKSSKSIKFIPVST

O=C(NCc1cc(F)cc(C(F)(F)F)c1)[C@H](CCC(=O)N1CCN(C2CCCCC2)CC1)N1C(=O)[C@@H](N2C(=O)OC[C@@H]2c2ccccc2)[C@H]1/C=C/c1ccccc1 [Example 179]
IC50: 0.81 nM

Cc1cccc(CN(C)C(=O)[C@H](CCC(=O)N2CCN(C3CCCCC3)CC2)N2C(=O)[C@@H](N3C(=O)OC[C@@H]3c3ccccc3)[C@H]2/C=C/c2ccccc2)c1 [Example 221A]
IC50: 2.71 nM | Ki: 1.66 nM

O=C(C(COCc1ccccc1)N1C(=O)[C@@H](N2C(=O)OC[C@@H]2c2ccccc2)[C@H]1/C=C/c1ccccc1)N1CCN(C2CCCCC2)CC1 (mixture of isomers) [Example 232D]
IC50: 2.04 nM | Ki: 1.25 nM

CN(Cc1ccccc1)C(=O)[C@H](CCC(=O)N1CCN(C2CCCCC2)CC1)N1C(=O)[C@@H](N2C(=O)OC[C@@H]2c2ccccc2)[C@H]1/C=C/c1ccccc1 [Example 196]
IC50: < 100 nM

O=C(NC1CCCc2ccccc21)C(CCC(=O)N1CCN(C2CCCCC2)CC1)N1C(=O)C(N2C(=O)OCC2c2ccccc2)C1C=Cc1ccccc1 (single isomer, unassigned) [Example 214]
IC50: 1.86 nM | Ki: 1.14 nM

O=C(CC[C@@H](C(=O)N[C@@H]1CCCc2ccccc21)N1C(=O)[C@@H](N2C(=O)OC[C@@H]2c2ccccc2)[C@H]1/C=C/c1ccccc1)Nc1cnc2ccccc2c1 [Example 221AL]
IC50: ~100 nM

O=C(NCc1cccc(C(F)(F)F)c1)[C@H](CCC(=O)N1CCC(CCN2CCCCC2)CC1)N1C(=O)[C@@H](N2C(=O)OC[C@@H]2c2ccccc2)[C@H]1/C=C/c1ccccc1 [Example 120A]
IC50: 16.2 nM | Ki: 9.9 nM

(2S)-[(4-cyclohexylpiperazinyl)carbonylethyl]-2-[3(S)-(4(S)-phenyloxazolidin-2-on-3-yl)-4(R)-(2-phenyleth-1-yl)azetidin-2-on-1-yl]acetic acid N—[(R)-1,2,3,4-tetrahydronaphth-1-yl]amide [Example 236A]
IC50: 9 nM | Ki: 5.5 nM

Cc1cccc(CNC(=O)[C@H](CCC(=O)N2CCN(C3CCCCC3)CC2)N2C(=O)[C@@H](N3C(=O)OC[C@@H]3c3ccccc3)[C@H]2/C=C/c2ccccc2)c1 [Example 193]
IC50: 1.17 nM | Ki: 0.72 nM

O=C(NCc1cccc(C(F)(F)F)c1)[C@@H](CC(=O)N1CCC(CCN2CCCCC2)CC1)N1C(=O)[C@@H](N2C(=O)OC[C@@H]2c2ccccc2)[C@H]1/C=C/c1ccccc1 [Example 134A]
IC50: 12.9 nM | Ki: 7.9 nM

O=C(NCc1cc(C(F)(F)F)cc(C(F)(F)F)c1)[C@H](CCC(=O)N1CCN(C2CCCCC2)CC1)N1C(=O)[C@@H](N2C(=O)OC[C@@H]2c2ccccc2)[C@H]1/C=C/c1ccccc1 [Example 188]
IC50: 7.26 nM

CN(Cc1cccc(C(F)(F)F)c1)C(=O)[C@H](CCC(=O)N1CCN(C2CCCCC2)CC1)N1C(=O)[C@@H](N2C(=O)OC[C@@H]2c2ccccc2)[C@H]1/C=C/c1ccccc1 [Example 205]
IC50: 0.34 nM | Ki: 0.21 nM

O=C(NC1(c2ccccc2)CCCCC1)[C@H](CCC(=O)N1CCN(C2CCCCC2)CC1)N1C(=O)[C@@H](N2C(=O)OC[C@@H]2c2ccccc2)[C@H]1/C=C/c1ccccc1 [Example 221G]
IC50: 1.5 nM | Ki: 0.93 nM

COc1ccccc1C=CC1C(N2C(=O)OCC2c2ccccc2)C(=O)N1C(CC(=O)N1CCC(N2CCCCC2)CC1)C(=O)NCc1cccc(C(F)(F)F)c1 [Example 231, 2(R)-[[4-(Piperidinyl)piperidinyl]carbonylmethyl]-2-[3(S)-(4(S)-phenyloxazolidin-2-on-3-yl)-4(R)-(2′-methoxystyr-2-yl)azetidin-2-on-1-yl]acetic acid N-(3-trifluoromethylbenzyl)amide]
IC50: 6.12 nM | Ki: 3.75 nM

O=C(NCc1cccc(C(F)(F)F)c1)C(C(=O)N1CCN(C2CCCCC2)CC1)N1C(=O)[C@@H](N2C(=O)OC[C@@H]2c2ccccc2)[C@H]1/C=C/c1ccccc1 (mixture of isomers) [Example 42]
Ki: 26.4 nM

O=C(NCc1cccc(C(F)(F)F)c1)C(C(=O)N1CCC(N2CCCCC2)CC1)N1C(=O)[C@@H](N2C(=O)OC[C@@H]2c2ccccc2)[C@H]1/C=C/c1ccccc1 (mixture of isomers) [Example 37]
Ki: 3.39 nM

CC(C)(NC(=O)[C@@H](CC(=O)N1CCC(N2CCCCC2)CC1)N1C(=O)[C@@H](N2C(=O)OC[C@@H]2c2ccccc2)[C@H]1/C=C/c1ccccc1)c1ccccc1 [Example 134J]
IC50: 5.29 nM | Ki: 3.25 nM

O=C(NC1(c2ccccc2)CC1)[C@H](CCC(=O)N1CCN(C2CCCCC2)CC1)N1C(=O)[C@@H](N2C(=O)OC[C@@H]2c2ccccc2)[C@H]1/C=C/c1ccccc1 [Example 207]
IC50: 4.48 nM | Ki: 2.74 nM

COc1cccc([C@H](C)NC(=O)[C@H](CCC(=O)N2CCN(C3CCCCC3)CC2)N2C(=O)[C@@H](N3C(=O)OC[C@@H]3c3ccccc3)[C@H]2/C=C/c2ccccc2)c1 [Example 203]
IC50: 2.46 nM | Ki: 1.5 nM

O=C(NCc1cc(C(F)(F)F)ccc1F)[C@H](CCC(=O)N1CCN(C2CCCCC2)CC1)N1C(=O)[C@@H](N2C(=O)OC[C@@H]2c2ccccc2)[C@H]1/C=C/c1ccccc1 [Example 177]
IC50: 0.67 nM

CN(Cc1cccc(Cl)c1Cl)C(=O)[C@H](CCC(=O)N1CCN(C2CCCCC2)CC1)N1C(=O)[C@@H](N2C(=O)OC[C@@H]2c2ccccc2)[C@H]1/C=C/c1ccccc1 [Example 221B]
IC50: 0.59 nM | Ki: 0.36 nM

O=C(C[C@H](C(=O)NCc1cccc(C(F)(F)F)c1)N1C(=O)[C@@H](N2C(=O)OC[C@@H]2c2ccccc2)[C@H]1/C=C/c1ccccc1)NC1CCN(Cc2ccccc2)CC1 [Example 134C]
IC50: 9.1 nM | Ki: 5.58 nM

CN(Cc1cccc(Cl)c1)C(=O)[C@H](CCC(=O)N1CCN(C2CCCCC2)CC1)N1C(=O)[C@@H](N2C(=O)OC[C@@H]2c2ccccc2)[C@H]1/C=C/c1ccccc1 [Example 221C]
IC50: 3 nM | Ki: 1.84 nM

CC(C)N1CCN(C(=O)C(C(=O)NCc2cccc(C(F)(F)F)c2)N2C(=O)[C@@H](N3C(=O)OC[C@@H]3c3ccccc3)[C@H]2/C=C/c2ccccc2)CC1 (mixture of isomers) [Example 41]
Ki: 18.2 nM

O=C(NCc1ccccc1)[C@H](CCC(=O)N1CCN(C2CCCCC2)CC1)N1C(=O)[C@@H](N2C(=O)OC[C@@H]2c2ccccc2)[C@H]1/C=C/c1ccccc1 [Example 191]
IC50: 2.92 nM | Ki: 1.79 nM

CCN1CCN(C(=O)CC[C@@H](C(=O)NCc2cccc(C(F)(F)F)c2)N2C(=O)[C@@H](N3C(=O)OC[C@@H]3c3ccccc3)[C@H]2/C=C/c2ccccc2)CC1 [Example 221AC]
IC50: < 10 nM

CCN1CCN(C(=O)CC[C@@H](C(=O)N[C@@H]2CCCc3ccccc32)N2C(=O)[C@@H](N3C(=O)OC[C@@H]3c3ccccc3)[C@H]2/C=C/c2ccccc2)CC1 [Example 221BD]
IC50: 2.7 nM | Ki: 1.66 nM

O=C(NCc1cccc(C(F)(F)F)c1)[C@@H](CCC(=O)N1CCN(C2CCCCC2)CC1)N1C(=O)[C@@H](N2C(=O)OC[C@@H]2c2ccccc2)[C@H]1/C=C/c1ccccc1 [Example 139]
Ki: 5.84 nM

O=C(NC1CCc2ccccc21)[C@H](CCC(=O)N1CCN(C2CCCCC2)CC1)N1C(=O)[C@@H](N2C(=O)OC[C@@H]2c2ccccc2)[C@H]1/C=C/c1ccccc1 (stereo partly shown) [Example 216]
IC50: 1.83 nM | Ki: 1.12 nM

CC(C)N1CCN(C(=O)CC[C@H](C(=O)NCc2cccc(C(F)(F)F)c2)N2C(=O)[C@@H](N3C(=O)OC[C@@H]3c3ccccc3)[C@H]2/C=C/c2ccccc2)CC1 [Example 138]
Ki: 13 nM

O=C(NCc1cccc(Cl)c1Cl)[C@H](CCC(=O)N1CCN(C2CCCCC2)CC1)N1C(=O)[C@@H](N2C(=O)OC[C@@H]2c2ccccc2)[C@H]1/C=C/c1ccccc1 [Example 176]
IC50: 0.61 nM

COc1ccc(C2(NC(=O)[C@H](CCC(=O)N3CCN(C4CCCCC4)CC3)N3C(=O)[C@@H](N4C(=O)OC[C@@H]4c4ccccc4)[C@H]3/C=C/c3ccccc3)CC2)cc1 [Example 221AO]
IC50: ~100 nM

O=C(NC(c1ccccc1)c1ccccc1)[C@H](CCC(=O)N1CCN(C2CCCCC2)CC1)N1C(=O)[C@@H](N2C(=O)OC[C@@H]2c2ccccc2)[C@H]1/C=C/c1ccccc1 [Example 221K]
IC50: ~5 nM

O=C([C@@H](COCc1ccccc1)N1C(=O)[C@@H](N2C(=O)OC[C@@H]2c2ccccc2)[C@H]1/C=C/c1ccccc1)N1CCC(CCN2CCCCC2)CC1 [Example 233]
IC50: 0.56 nM | Ki: 0.34 nM

O=C(NC1(c2ccccc2F)CCCC1)[C@H](CCC(=O)N1CCN(C2CCCCC2)CC1)N1C(=O)[C@@H](N2C(=O)OC[C@@H]2c2ccccc2)[C@H]1/C=C/c1ccccc1 [Example 221H]
IC50: 4 nM | Ki: 2.5 nM

CN(Cc1cc(Cl)cc(Cl)c1)C(=O)[C@H](CCC(=O)N1CCN(C2CCCCC2)CC1)N1C(=O)[C@@H](N2C(=O)OC[C@@H]2c2ccccc2)[C@H]1/C=C/c1ccccc1 [Example 221E]
IC50: 20.2 nM | Ki: 12.4 nM

From patent US9597314B2, “Beta-lactamylalkanoic acids for treating premenstrual disorders” (AZEVAN PHARMACEUTICALS, INC., priority 2005, dated 2017)
